The source of these data is patent US9260485B2 (priority 2009, dated 2016).

Square brackets hold non-standard residues; d marks the D form. Peptide text beside a SMILES is read from it. ξ: configuration not given here. Hica(2S) = CC(C)C[C@H](O)C(=O)O; ξLac(3-iPr) = CC(C)CC(O)C(=O)O; NMeL = CN[C@@H](CC(C)C)C(=O)O

For one data set, the system named is HCT-116 colon carcinoma. The conditions noted are these: cited from earlier work.
In another data set the test system is MES-SA/DX5. In words: Multidrug resistance-reversing activity: effect on paclitaxel's cytotoxicity. It is filed as cell-based. Conditions: Homo sapiens, TAX alone. The protocol:
(§1) The cyclic pentadepsipeptides of Chemical Formulas 1 and 2 were analyzed for MDR-reversing activity by comparing inhibitory activities against multidrug-resistant cancer cell lines (MES-SA/DX5 and HCT15/CL02) with those against non-multidrug-resistant cancer cell lines (MES-SA and HCT15). In this regard, the effects of the cyclic pentadepsipeptides of Chemical Formulas 1 and 2 on paclitaxel's cytotoxicity against MDR tumor cells were measured (Table 6).

A further data set relates to HCT15/CL02. The data set is described as above. It is filed as cell-based. Conditions: Homo sapiens, HCT-15, TAX alone. Here is the method: as §1
The next data set concerns MES-SA. Described as above. The conditions noted are these: Homo sapiens, TAX alone. It is filed as cell-based. Here is the method:
as §1

The next data set relates to HCT15. The description is as above. It is filed as cell-based. The conditions noted are these: Homo sapiens, HCT-15, TAX alone. Here is the method: as §1
For data set [1], the system named is NCI human tumor cell line screen. The conditions noted are these: cited from earlier work.
In a further data set the test system is Fusarium oxysporum. In words: Anti-fungal activity, paper disc on mycelia on PDA. It is filed as cell-based. The protocol: (§2) Inhibitory activity was performed against four fungus strains (Mucor rouxii, Penicillium citrinum, Fusarium oxysporum, and Aspergillus oryzae).
(§3) Drops of 1 and 10 mM solutions of compounds of Chemical Formulas 1 and 2 in methanol were loaded onto sterile paper discs (8 mm diameter) and the methanol solvent was evaporated under a hood. The paper discs were placed on fungus mycelia grown on potato dextrose agar. After incubation at 25° C. for 48 hr, clear zones around the discs were observed and their diameters were measured. A filter treated with pure methanol was used as a negative control.

The subject of a further data set is Penicillium citrinum. As to the kind of experiment: Anti-fungal activity, paper disc on mycelia on PDA. The format is cell-based. Conditions: 1 mM; 25° C., 48 hr. Here is the method:
as §2, §3

The subject of another data set is Aspergillus oryzae. As to the kind of experiment: Anti-fungal activity, paper disc on mycelia on PDA. It is filed as cell-based. Conditions: 1 mM; 25° C., 48 hr. Here is the method:
as §2, §3

The next data set relates to Mucor rouxii. As to the kind of experiment: Anti-fungal activity, paper disc on mycelia on PDA. It is filed as cell-based. The protocol: as §2, §3
The test system of data set [2] is MDR cell lines (MES-SA/DX5 and HCT15/CL02). As to the kind of experiment: Multidrug resistance-reversing activity, summary in words. The format is cell-based, Human. The protocol: The cyclic pentadepsipeptides of Chemical Formulas 1 and 2 were analyzed for MDR-reversing activity by comparing inhibitory activities against multidrug-resistant cancer cell lines (MES-SA/DX5 and HCT15/CL02) with those against non-multidrug-resistant cancer cell lines (MES-SA and HCT15). In this regard, the effects of the cyclic pentadepsipeptides of Chemical Formulas 1 and 2 on paclitaxel's cytotoxicity against MDR tumor cells were measured (Table 6). […].
Therefore, the N-methyl group in the cyclic pentadepsipeptide may be a factor crucial for the expression of the MDR reversal activity. […]

Data set [3] has as its system MES-SA/DX5 multi-drug resistant subline. As to the kind of experiment: In vitro cytotoxicity, SRB method. It is filed as cell-based, Human. The conditions noted are these: Homo sapiens, MES-SA/Dx5, read-out: EC50 (concentration inhibiting cell growth in vitro by 50%). The protocol:
(§4) Known cyclic hexadepsipeptides (beauvericin, enniatin H, I, and MK1688) and the compounds of Chemical Formulas 1 and 2 were evaluated for in vitro cytotoxicity against various non-multidrug-resistant human cancer cell lines and multidrug-resistant cancer cell lines using the SRB method.
(§5) Human non-small-cell lung cancer cell line (A549) ovarian cancer cell line (SK-OV-3), skin cancer cell line (SK-MEL-2), and uterine sarcoma cell line MES-SA and its multi-drug resistant subline (MES-SA/DX5) were purchased from the American Type Culture Collection (USA). Colorectal carcinoma cancer cell line (HCT-15) was provided by the National Cancer Institute (NCI). HCT15/CL02 cell lines were established from HCT15 cells by continuous and stepwise exposure of the cells to doxorubicin in the Korea Research Institute of Chemical Technology (Korea).

In data set [4] the test system is MES-SA uterine sarcoma cell line. As to the kind of experiment: In vitro cytotoxicity, SRB method. It is filed as cell-based, Human. The conditions noted are these: Homo sapiens, read-out: EC50 (concentration inhibiting cell growth in vitro by 50%). The protocol:
as §4, §5
In general terms: In SRB staining, fixed cells bind dye roughly in proportion to their protein.

In data set [5] the test system is SK-OV-3 ovarian cancer cell line. In words: In vitro cytotoxicity, SRB method. It is filed as cell-based, Human. Conditions: Homo sapiens, SK-OV-3, read-out: EC50 (concentration inhibiting cell growth in vitro by 50%). Here is the method:
as §4, §5

The test system of data set [6] is HCT15 colorectal carcinoma cancer cell line. In words: In vitro cytotoxicity, SRB method. It is filed as cell-based, Human. Conditions: Homo sapiens, HCT-15, read-out: EC50 (concentration inhibiting cell growth in vitro by 50%). The protocol: as §4, §5
Data set [7] has as its system HCT15/CL02 cell line (doxorubicin-selected from HCT15). In words: In vitro cytotoxicity, SRB method. Conditions: Homo sapiens, HCT-15, read-out: EC50 (concentration inhibiting cell growth in vitro by 50%). It is filed as cell-based, Human. The protocol:
as §4, §5

Data set [8] relates to SK-MEL-2 skin cancer cell line. In words: In vitro cytotoxicity, SRB method. Conditions: Homo sapiens, SK-MEL-2, read-out: EC50 (concentration inhibiting cell growth in vitro by 50%). The format is cell-based, Human. The protocol: as §4, §5
The subject of data set [9] is A549 non-small-cell lung cancer cell line. As to the kind of experiment: In vitro cytotoxicity, SRB method. It is filed as cell-based, Human. Conditions: Homo sapiens, A549, read-out: EC50 (concentration inhibiting cell growth in vitro by 50%). The protocol: as §4, §5
Data set [10] relates to Pseudomonas aeruginosa ATCC 9026. As to the kind of experiment: Anti-bacterial activity, paper disc clear zone. It is filed as cell-based. The conditions noted are these: 0.1, 0.5, 1 and 2 mM on paper disc; 37° C., 24 hr. The protocol: (§6) Assays for antibacterial activity were performed with 3 Gram-positive (Listeria monocytogenes ATCC 14028, Staphylococcus aureus ATCC 35556 and Bacillus cereus ATCC 13061) and 3 Gram-negative bacteria (Escherichia coli ATCC 8739, Pseudomonas aeruginosa ATCC 9026 and Salmonella typhimurium ATCC 14028). Each of the compounds of Chemical Formulas 1 and 2 was dissolved in different concentrations (0.1, 0.5, 1, and 2 mM) in dimethyl sulfoxide (DMSO). The solutions were applied to a sterile paper disc (5 mm diameter), followed by evaporating the DMSO solvent. Bacteria was inoculated at a density of 1×10^7 CFU/ml on Tryptic soy agar (TSA) and then, the paper disc was placed on the bacteria-inoculated agars. After incubation at 37° C. for 24 hr, the clear zone around each disc was observed and its diameter was measured.

Data set [11] deals with Escherichia coli ATCC 8739. In words: Anti-bacterial activity, paper disc clear zone. The conditions noted are these: 0.1, 0.5, 1 and 2 mM on paper disc; 37° C., 24 hr. The format is cell-based. The protocol: as §6
The subject of data set [12] is Staphylococcus aureus ATCC 35556. As to the kind of experiment: Anti-bacterial activity, paper disc clear zone. The format is cell-based. The conditions noted are these: 0.1, 0.5, 1 and 2 mM on paper disc; 37° C., 24 hr. The protocol:
as §6

In data set [13] the test system is Listeria monocytogenes ATCC 14028. As to the kind of experiment: Anti-bacterial activity, paper disc clear zone. The format is cell-based. Conditions: 0.1, 0.5, 1 and 2 mM on paper disc; 37° C., 24 hr. The protocol: as §6
Data set [14] relates to Bacillus cereus ATCC 13061. In words: Anti-bacterial activity, paper disc clear zone. It is filed as cell-based. The conditions noted are these: 0.1, 0.5, 1 and 2 mM on paper disc; 37° C., 24 hr. The protocol:
as §6

Data set [15] concerns Salmonella typhimurium ATCC 14028. As to the kind of experiment: Anti-bacterial activity, paper disc clear zone. The format is cell-based. The conditions noted are these: 0.1, 0.5, 1 and 2 mM on paper disc; 37° C., 24 hr. Here is the method: as §6

Regarding `CC(C)C[C@@H]1NC(=O)[C@H](C(C)C)NC(=O)[C@H](CC(C)C)OC(=O)[C@H](CC(C)C)NC(=O)[C@H](Cc2ccccc2)NC1=O` [sansalvamide] (cyclo(FL[Hica(2S)]VL)), the “in vitro IC50” value with HCT-116 colon carcinoma was 9.8 µg/mL.
Consider `CC(=O)O[C@H]1C(=O)[C@@]2(C)[C@H]([C@H](OC(=O)c3ccccc3)[C@]3(O)C[C@H](OC(=O)[C@H](O)[C@@H](NC(=O)c4ccccc4)c4ccccc4)C(C)=C1C3(C)C)[C@]1(OC(C)=O)CO[C@@H]1C[C@@H]2O` [TAX, paclitaxel], for which the EC50 is 0.01 ± 0.00053 µM in the data set with MES-SA/DX5, greater than 1 µM in the data set on HCT15/CL02, 0.001 ± 0.0002 µM in the data set with MES-SA and 0.00085 ± 0.00063 µM with HCT15.
With `CC(C)C[C@@H]1NC(=O)[C@H](Cc2ccccc2)NC(=O)[C@H](CC(C)C)N(C)C(=O)[C@H](C(C)C)NC(=O)[C@H](CC(C)C)OC1=O` [N-Methylsansalvamide] (cyclo(FL[Hica(2S)]V[NMeL])), in [1], the GI50 is 8.3 µM.
For the molecule `CC(C)CC1OC(=O)[C@H](Cc2ccccc2)NC(=O)[C@H](CC(C)C)NC(=O)[C@H](C(C)C)NC(=O)[C@H](CC(C)C)N(C)C1=O` (some centres unmarked) [Com. 2, neo-Nmethylsansalvamide] (cyclo(F[ξLac(3-iPr)][NMeL]VL)), the “Antifungal test, overall result” value is “inhibitory against Mucor rouxii, and Fusarium oxysporum, weakly” in the data set with Fusarium oxysporum; “inhibitory against Mucor rouxii, and Fusarium oxysporum, weakly” with Mucor rouxii. The “Inhibitory activity on mycelial growth” value in the data set on Fusarium oxysporum (1 mM, 25° C., 48 hr) is reported as “No inhibitory activities were detected”; with Penicillium citrinum, “No inhibitory activities were detected”; with Aspergillus oryzae it was “No inhibitory activities were detected”; with Mucor rouxii (1 mM, 25° C., 48 hr) it was “No inhibitory activities were detected”. Further, in the data set with Fusarium oxysporum (10 mM, 25° C., 48 hr), the “Clear zone / inhibitory effect on mycelium” value was “exhibited an inhibitory effect at 10 mM, weakly”. Also, the Clear zone result in the data set with Mucor rouxii (10 mM, 25° C., 48 hr) was “no clear zones were observed”. The “Hyphal growth near the paper disc” value in the data set on Mucor rouxii (10 mM, 25° C., 48 hr) is “hyphal growth of Mucor rouxii was reduced”. Further, the “Effect on the cytotoxicity of paclitaxel against MDR cell lines” value in [2] is “remarkably enhanced the cytotoxicity of paclitaxel”. The EC50 in data set [3] came out at 11.4 ± 0.3 µM; in data set [4], 14 ± 0.74 µM; in data set [5] it was 11.2 ± 1.23 µM; in [6], 12.5 ± 0.71 µM; in data set [7], 13.5 ± 1.19 µM; in [8], 10 ± 0.53 µM. For the same molecule, the EC50 in data set [9] stood at 10.7 ± 0.15 µM. In addition, the “Inhibitory activity (clear zone around disc)” value in data set [10], in data set [11], in [12], in data set [13], in data set [14] and in data set [15] was “Neither the compound of Chemical Formula 1 nor Chemical Formula 2 showed inhibitory activity” each time.

What is called GI50 is the concentration that inhibits growth by half.
